Results from ChEMBL document CHEMBL5380833 (J Med Chem, 2023).

Key:
[1] = molecular target: T1, Protein cereblon/Tyrosine-protein kinase ITK/TSK (Homo sapiens, UniProt Q08881+Q96SW2); experiment: PROTAC activity at CRBN/ITK in human Jurkat cells assessed as maximum degradation at 0.01 to 10 uM by Western blot analysis relative to control; type: cell-based; details: dose 0.01-10 µM
Target sequence in this assay (Q96SW2 whole entry, looked up, one chain of several): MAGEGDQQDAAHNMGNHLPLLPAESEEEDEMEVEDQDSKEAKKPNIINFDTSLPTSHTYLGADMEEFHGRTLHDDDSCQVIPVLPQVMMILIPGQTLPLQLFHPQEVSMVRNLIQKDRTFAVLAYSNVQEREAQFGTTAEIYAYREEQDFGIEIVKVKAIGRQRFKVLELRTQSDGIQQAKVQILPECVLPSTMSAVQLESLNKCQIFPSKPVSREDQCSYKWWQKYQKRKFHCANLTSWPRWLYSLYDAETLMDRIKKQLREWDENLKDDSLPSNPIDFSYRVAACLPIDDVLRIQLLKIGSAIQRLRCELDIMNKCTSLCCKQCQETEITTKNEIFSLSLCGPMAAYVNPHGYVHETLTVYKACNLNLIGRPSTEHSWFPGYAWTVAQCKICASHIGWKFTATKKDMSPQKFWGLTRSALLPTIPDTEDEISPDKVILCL

[2] = molecular target: T1, Protein cereblon/Tyrosine-protein kinase ITK/TSK; experiment: PROTAC activity at CRBN/ITK in human Jurkat cells assessed as induction of ITK degradation by Western blot analysis; type: cell-based
Target sequence in this assay (Q96SW2 whole entry, one chain of several): as the sequence (Q96SW2 whole entry, looked up, one chain of several) above

[3] = molecular target: T2, Tyrosine-protein kinase ITK/TSK (Homo sapiens, UniProt Q08881); experiment: Inhibition of ITK (unknown origin)
T2 sequence (Q08881 whole entry): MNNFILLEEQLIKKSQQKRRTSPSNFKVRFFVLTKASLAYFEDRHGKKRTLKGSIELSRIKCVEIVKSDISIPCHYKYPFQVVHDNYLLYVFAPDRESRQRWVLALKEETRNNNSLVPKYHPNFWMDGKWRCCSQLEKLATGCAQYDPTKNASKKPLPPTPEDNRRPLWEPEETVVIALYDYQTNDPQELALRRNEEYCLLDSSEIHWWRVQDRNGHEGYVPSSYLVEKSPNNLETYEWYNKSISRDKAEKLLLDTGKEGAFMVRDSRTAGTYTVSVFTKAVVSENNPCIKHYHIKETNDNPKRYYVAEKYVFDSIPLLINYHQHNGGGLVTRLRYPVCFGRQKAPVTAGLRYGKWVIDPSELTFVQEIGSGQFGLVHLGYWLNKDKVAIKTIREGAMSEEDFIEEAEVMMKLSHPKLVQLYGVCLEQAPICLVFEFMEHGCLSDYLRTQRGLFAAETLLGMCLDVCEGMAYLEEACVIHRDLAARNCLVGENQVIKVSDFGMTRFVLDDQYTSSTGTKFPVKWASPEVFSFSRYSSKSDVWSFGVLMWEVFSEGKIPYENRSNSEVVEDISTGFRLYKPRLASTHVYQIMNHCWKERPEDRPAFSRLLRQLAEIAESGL

Interleukin-2 = Interleukin-2 (Homo sapiens, UniProt P60568); experiment: Inhibition of IL-2 in human Jurkat T cells pretreated with compound for 16 hrs followed by anti-CD3 stimulation by ELISA analysis; type: cell-based
Interleukin-2, sequence (P60568 whole entry): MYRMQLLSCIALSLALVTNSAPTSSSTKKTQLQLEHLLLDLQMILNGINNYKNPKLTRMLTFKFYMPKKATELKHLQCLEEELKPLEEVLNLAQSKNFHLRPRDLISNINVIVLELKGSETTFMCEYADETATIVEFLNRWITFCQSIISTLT

Row | Emax [1] | EC50 ([2]; read-out: EC50) | IC50 [3] | EC50 ([2]; jurkat) | EC50 (Interleukin-2) | SMILES
1 | 75% | 220 nM | – | – | – | CN(CCOCCOCC(=O)Nc1cccc2c1C(=O)N(C1CCC(=O)NC1=O)C2=O)CC[C@@H](c1ccccc1)n1cc(NC(=O)c2n[nH]c3c2CCC(C)(C)C3)cn1 (some centres not stated)
2 | 90% | 142 nM | – | – | – | CC1(C)CCc2c(C(=O)Nc3cnn([C@@H](CCN4CCN(CCC5CN(c6ccc7c(c6)C(=O)N(C6CCC(=O)NC6=O)C7=O)C5)CC4)c4ccccc4)c3)n[nH]c2C1 (some centres not stated)
3 | 90% | 5.3 nM | – | – | – | CN(CCCCC(=O)Nc1ccc2c(c1)C(=O)N(C1CCC(=O)NC1=O)C2=O)CC[C@@H](c1ccccc1)n1cc(NC(=O)c2n[nH]c3c2CCC(C)(C)C3)cn1 (some centres not stated)
4 | 95% | 32.7 nM | – | – | – | CN(CCOCCOCCNC(=O)CNc1cccc2c1C(=O)N(C1CCC(=O)NC1=O)C2=O)CC[C@@H](c1ccccc1)n1cc(NC(=O)c2n[nH]c3c2CCC(C)(C)C3)cn1 (some centres not stated)
5 | 95% | 26.7 nM | – | – | – | CN(CCOCCOCC(=O)Nc1ccc2c(c1)C(=O)N(C1CCC(=O)NC1=O)C2=O)CC[C@@H](c1ccccc1)n1cc(NC(=O)c2n[nH]c3c2CCC(C)(C)C3)cn1 (some centres not stated)
6 | – | – | < 4 nM | – | – | COc1cccc(-n2c(=O)c(C(=O)Nc3ccc(-c4nc(-c5ccnc(N6CC(OC)C6)c5)cnc4N)nc3)c(C)n2C)c1
7 | – | – | – | Not Active | – | CN(CCCCCC(=O)Nc1ccc2c(c1)C(=O)N(C1CCC(=O)N(C)C1=O)C2=O)CC[C@@H](c1ccccc1)n1cc(NC(=O)c2n[nH]c3c2CCC(C)(C)C3)cn1 (some centres not stated)
8 | 82% | 75.4 nM | – | – | – | CN(CCCCCCCCCCC(=O)Nc1ccc2c(c1)C(=O)N(C1CCC(=O)NC1=O)C2=O)CC[C@@H](c1ccccc1)n1cc(NC(=O)c2n[nH]c3c2CCC(C)(C)C3)cn1 (some centres not stated)
9 | 75% | 286 nM | – | – | – | CN(CCOCCOCCOCCOCC(=O)Nc1cccc2c1C(=O)N(C1CCC(=O)NC1=O)C2=O)CC[C@@H](c1ccccc1)n1cc(NC(=O)c2n[nH]c3c2CCC(C)(C)C3)cn1 (some centres not stated)
10 | 75% | 353 nM | – | – | – | CN(CCOCCOCCOCC(=O)Nc1cccc2c1C(=O)N(C1CCC(=O)NC1=O)C2=O)CC[C@@H](c1ccccc1)n1cc(NC(=O)c2n[nH]c3c2CCC(C)(C)C3)cn1 (some centres not stated)
11 | 92% | 106 nM | – | – | – | CN(CCOCCOCCOCCOCC(=O)Nc1ccc2c(c1)C(=O)N(C1CCC(=O)NC1=O)C2=O)CC[C@@H](c1ccccc1)n1cc(NC(=O)c2n[nH]c3c2CCC(C)(C)C3)cn1 (some centres not stated)
12 | – | – | – | – | 238 nM | COc1cc(C)c(Sc2cnc(NC(=O)c3ccc(CNC(C)C(C)(C)C)cc3)s2)cc1C(=O)N1CCN(C(C)=O)CC1 (configuration not stated)
13 | 90% | 29.3 nM | – | – | – | CC1(C)CCc2c(C(=O)Nc3cnn([C@@H](CCN4CCN(CC5CCN(c6ccc7c(c6)C(=O)N(C6CCC(=O)NC6=O)C7=O)CC5)CC4)c4ccccc4)c3)n[nH]c2C1 (some centres not stated)
14 | 85% | 10 nM | – | – | – | CC1(C)CCc2c(C(=O)Nc3cnn([C@@H](CCN4CCN(CC5CN(c6ccc7c(c6)C(=O)N(C6CCC(=O)NC6=O)C7=O)C5)CC4)c4ccccc4)c3)n[nH]c2C1 (some centres not stated)
15 | 99% | 32.7 nM | – | – | – | CN(CCOCCNC(=O)CNc1cccc2c1C(=O)N(C1CCC(=O)NC1=O)C2=O)CC[C@@H](c1ccccc1)n1cc(NC(=O)c2n[nH]c3c2CCC(C)(C)C3)cn1 (some centres not stated)
16 | 93% | 62.2 nM | – | – | – | CN(CCOCCOCCOCCNC(=O)CNc1cccc2c1C(=O)N(C1CCC(=O)NC1=O)C2=O)CC[C@@H](c1ccccc1)n1cc(NC(=O)c2n[nH]c3c2CCC(C)(C)C3)cn1 (some centres not stated)
17 | 90% | 9 nM | – | – | – | CN(CCCCCCC(=O)Nc1ccc2c(c1)C(=O)N(C1CCC(=O)NC1=O)C2=O)CC[C@@H](c1ccccc1)n1cc(NC(=O)c2n[nH]c3c2CCC(C)(C)C3)cn1 (some centres not stated)
18 | 93% | 94.1 nM | – | – | – | CN(CCOCCOCCOCC(=O)Nc1ccc2c(c1)C(=O)N(C1CCC(=O)NC1=O)C2=O)CC[C@@H](c1ccccc1)n1cc(NC(=O)c2n[nH]c3c2CCC(C)(C)C3)cn1 (some centres not stated)
19 | 97% | 15.6 nM | – | – | – | CN(CCOCCC(=O)NC1=CCC2C(=O)N(C3CCC(=O)NC3=O)C(=O)C2=C1)CC[C@@H](c1ccccc1)n1cc(NC(=O)c2n[nH]c3c2CCC(C)(C)C3)cn1 (some centres not stated)
20 | 93% | 5.5 nM | – | – | – | CN(CCCCCCCCC(=O)Nc1ccc2c(c1)C(=O)N(C1CCC(=O)NC1=O)C2=O)CC[C@@H](c1ccccc1)n1cc(NC(=O)c2n[nH]c3c2CCC(C)(C)C3)cn1 (some centres not stated)
